Results on three compounds are retold here after US20060074244A1, “Pyridinyl substituted (1,2,3,)triazoles as inhibitors of the tgf-beta signalling pathway” (priority 2002, published 2006).

The test system of series [1] is TGF-β signalling (PAI-1 promoter-luciferase in HepG2 cells). In words: Cellular transcriptional assay (PAI-1 promoter luciferase reporter).
Description: The assay was performed in HepG2 cells stably transfected with the PAI-1 promoter (known to be a strong TGF-β responsive promoter) linked to a luciferase (firefly) reporter gene. The compounds were selected on their ability to inhibit luciferase activity in cells exposed to TGF-β. In addition, cells were transfected with a second luciferase (Renilla) gene which was not driven by a TGF-13 responsive promoter and was used as a toxicity control.
96 well microplates were seeded, using a multidrop apparatus, with the stably transfected cell line at a concentration of 35000 cells per well in 200 μl of serum-containing medium. These plates were placed in a cell incubator.
18 to 24 hours later (Day 2), cell-incubation procedure was launched. […] Each well contained only one candidate compound and its effect on the PAI-1 promoter was monitored.
Columns 11 and 12 were employed as controls. […] Column 11 was used to determine the ‘reference TGF-β induced firefly luciferase value’ against which values measured in the test wells (to quantify inhibitory activity) were compared. […]
12 to 18 hours later (day 3), the luciferase quantification procedure was launched. […] Following agitation (15 to 30 mins), luciferase activities of the plates were read in a dual-injector luminometer (BMG lumistar). […]
The target of series [2] is T1, recombinant GST-ALK5 (residues 198-503) (Homo sapiens, UniProt P36897).
T1 construct: assays using recombinant GST-ALK5 (residues 198-503)
T1 sequence (P36897 198-503): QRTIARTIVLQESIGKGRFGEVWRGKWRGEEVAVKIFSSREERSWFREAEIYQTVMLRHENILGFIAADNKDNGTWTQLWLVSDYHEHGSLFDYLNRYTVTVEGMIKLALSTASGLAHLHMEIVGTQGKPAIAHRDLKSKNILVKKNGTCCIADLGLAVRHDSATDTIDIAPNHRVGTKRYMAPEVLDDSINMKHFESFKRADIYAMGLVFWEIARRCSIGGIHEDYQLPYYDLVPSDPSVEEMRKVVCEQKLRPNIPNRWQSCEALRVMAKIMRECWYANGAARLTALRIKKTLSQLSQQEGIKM
Description: Alk5 fluorescence polarization assay. Particulars: displacement of rhodamine green-labelled ligand, 10 nM ALK5; read-out: ALK5 receptor modulator activity (IC50). The class given is binding. How it is done: Assay 2 (Alk5 Fluorescence Polarization Assay)
Kinase inhibitor compounds conjugated to fluorophores, can be used as fluorescent ligands to monitor ATP competitive binding of other compounds to a given kinase. The increase in depolarization of plane polarized light, caused by release of the bound ligand into solution, is measured as a polarization/anisotropy value. This protocol details the use of a rhodamine green-labelled ligand for assays using recombinant GST-ALK5 (residues 198-503).
Assay buffer components: 62.5 mM Hepes pH 7.5 (Sigma H-4034), 1 mM DTT (Sigma D-0632), 12.5 mM MgCl2 (Sigma M-9272), 1.25 mM CHAPS (Sigma C-3023). […]
ALK5 was added to assay buffer containing the above components and 1 nM of the rhodamine green-labelled ligand so that the final ALK5 concentration was 10 nM based on active site titration of the enzyme. […] The plates were read immediately on a LJL Acquest fluorescence reader (Molecular Devices, serial number AQ1048) with excitation, emission, and dichroic filters of 485 nm, 530 nm, and 505 nm, respectively. The fluorescence polarization for each well was calculated by the Acquest reader and then imported into curve fitting software for construction of concentration response curves. The normalized response was determined relative to the high controls (1 μl DMSO in column 12, rows A-D) and the low controls (1 μl of control compound in column 12, rows E-H). […]
Background: Fluorescence polarisation rises when a labelled molecule tumbles more slowly, as on binding a larger partner.

Regarding `O=C1C=CCC1` [CPO, Cyclopentenone, reference compound], in series [1] (500 μM CPO with TGF-β, relative to TGF-β only), the “firefly and renilla luciferase activities (toxicity control)” value was “around 50%”.
Consider `Cc1cccc(-c2[nH]nnc2-c2ccnc(-c3ccc(S(C)(=O)=O)cc3)c2)n1` [Example 1, 2-(4-Methanesulfonylphenyl)-4-(5-(6-methyl)-pyridin-2-yl-3H-[1,2,3]triazol-4-yl)-pyridine], for which the IC50 in series [2] was 26 nM; in series [1] (Homo sapiens, HepG2, read-out: TGF-β cellular activity) it was 413 nM.
For the compound `Cc1cccc(-c2nn[nH]c2-c2ccnc(-c3ccc(CN4CCOCC4)cc3)c2)n1` [Example 4, 4-(4-{4-[5-(6-methyl-pyridin-2-yl)-3H-[1,2,3]triazol-4-yl]-pyridin-2-yl}-benzyl)-morpholine], the melting point (commonly the temperature of the solid-liquid transition) was determined as 110 °C.
